Measured values published in US9873702B2, “Heterocyclic compounds as biogenic amine transport modulators” (Southern Research Institute, priority 2014, dated 2018).
Read-outs that look alike come from different tables or passages of the source.

How the values were obtained:
[1] = target: norepinephrine transporter (NET) (Rattus norvegicus, UniProt Q9WTR4); experiment: Norepinephrine reuptake ([^3H]norepinephrine uptake) inhibition in rat brain synaptosomes; conditions: for NE Uptake Emax (% I ± SD): maximal inhibition from dose-response fit
Protocol: Freshly removed whole brain minus cerebellum and caudate was homogenized in 10% ice-cold sucrose with 12 strokes of a hand-held Potter-Elvehjem homogenizer followed by centrifugation at 1000×g for 10 minutes. The supernatants were saved on ice and used immediately. Transporter activity at NET was assessed using 10 nM [^3H]norepinephrine. […] Uptake inhibition assays were conducted at 37° C. and were initiated by adding 100 μL of tissue to 900 μL assay buffer containing test drug and [^3H]norepinephrine. Test drugs were diluted in assay buffer containing 1 mg/mL bovine serum albumin. Nonspecific uptake was measured by incubating in the presence of 10 μM indatraline. The reactions were stopped after 10 minutes by rapid vacuum filtration with a cell harvester (BRANDEL) over GF/B filters (Whatman) presoaked in wash buffer maintained at 25° C. (10 mM Tris-HCl, pH 7.4/150 mM NaCl). Filters were rinsed with 6 mL wash buffer and retained tritium was quantified by a MicroBeta liquid scintillation counter (PerkinElmer) after overnight extraction in 0.6 mL of liquid scintillation cocktail (Cytoscint, ICN). The data from three experiments were pooled and fit to a dose-response curve equation (using Kaleidagraph), to yield an Emax and EC50 value.
The data from three experiments were pooled and fit to a dose-response curve equation (using KaleidaGraph; Synergy Software, Reading, Pa.) to yield an Emax and IC50 value.

DAT = target: T1, DAT (Rattus norvegicus, UniProt P23977); experiment: Dopamine transporter binding, inhibition of [^3H]WIN35428 binding in rat caudate membranes; conditions: 2 h; read-out: DAT Binding εmax
T1 construct: from tissue; host or cells: rat caudate membranes
Protocol: The ability of test drugs to inhibit [^3H]WIN35428 binding to DAT in rat caudate membranes was assessed as follows. For each experiment, caudates from four rat brains were suspended in 15 mL ice cold assay buffer (50 mM sodium phosphate pH 7.4) and homogenized using a polytron (setting 6, 20 sec). The homogenate was centrifuged at 30,000×g for 10 minutes at 4° C. The pellet was resuspended with vigorous vortexing in 15 mL fresh ice cold assay buffer, and the centrifugation was repeated. The pellet was resuspended in 15 mL fresh ice cold assay buffer with vigorous vortexing followed by six strokes with a glass-on-glass hand-held homogenizer and was diluted to a final volume of 235 mL in ice cold assay buffer. [^3H]WIN35428 was diluted to 10 nM in assay buffer that contained 25 μg/mL chymostatin, 25 μg/mL leupeptin, 0.1 mM EDTA, and 0.1 mM EGTA. Each assay tube contained 0.75 mL membrane preparation, 0.15 mL test drug diluted in assay buffer containing 1 mg/mL bovine serum albumin, and 0.1 mL [^3H]WIN35428 preparation (final concentration of 1 nM). Assays were initiated by the addition of membranes and were terminated after 2 hours at 25° C. by rapid vacuum filtration. Retained tritium was measured as described. The data from three experiments were pooled and fit to a dose-response curve equation (using Kaleidagraph), to yield an Emax and EC50 value.

[2] = target: dopamine transporter (DAT) (Rattus norvegicus, UniProt P23977); experiment: Dopamine reuptake ([^3H]dopamine uptake) inhibition in rat brain synaptosomes
[3] = target: T2, serotonin transporter (SERT) (Rattus norvegicus, UniProt P31652); experiment: Serotonin reuptake ([^3H]serotonin uptake) inhibition in rat brain synaptosomes; type: biochemical
T2 construct: Freshly removed whole brain minus cerebellum and caudate was homogenized; from tissue; host or cells: rat whole brain minus cerebellum and caudate, synaptosomes

[4] = read-out: NET Uptake IC50, mean ± S.D., n = 3
[5] = DAT Uptake IC50, [3H]DA uptake inhibition, mean ± S.D., n = 3
[6] = mean ± S.D., n = 3, read-out: SERT Uptake IC50
[7] = rat brain synaptosomes, 10 nM [^3H]norepinephrine
[8] = read-out: NE Uptake EC50 (nM ± SD), rat brain synaptosomes, 10 nM [^3H]norepinephrine, 10 min, 37° C.
[9] = mean ± S.D., n = 3, read-out: SERT Uptake Emax
[10] = DA Uptake EC50 (nM ± SD), rat caudate synaptosomes, 5 nM [^3H]dopamine, 15 min, 25° C., three experiments pooled
[11] = read-out: DA Uptake Emax (% I ± SD)

T2 sequence (P31652 whole entry): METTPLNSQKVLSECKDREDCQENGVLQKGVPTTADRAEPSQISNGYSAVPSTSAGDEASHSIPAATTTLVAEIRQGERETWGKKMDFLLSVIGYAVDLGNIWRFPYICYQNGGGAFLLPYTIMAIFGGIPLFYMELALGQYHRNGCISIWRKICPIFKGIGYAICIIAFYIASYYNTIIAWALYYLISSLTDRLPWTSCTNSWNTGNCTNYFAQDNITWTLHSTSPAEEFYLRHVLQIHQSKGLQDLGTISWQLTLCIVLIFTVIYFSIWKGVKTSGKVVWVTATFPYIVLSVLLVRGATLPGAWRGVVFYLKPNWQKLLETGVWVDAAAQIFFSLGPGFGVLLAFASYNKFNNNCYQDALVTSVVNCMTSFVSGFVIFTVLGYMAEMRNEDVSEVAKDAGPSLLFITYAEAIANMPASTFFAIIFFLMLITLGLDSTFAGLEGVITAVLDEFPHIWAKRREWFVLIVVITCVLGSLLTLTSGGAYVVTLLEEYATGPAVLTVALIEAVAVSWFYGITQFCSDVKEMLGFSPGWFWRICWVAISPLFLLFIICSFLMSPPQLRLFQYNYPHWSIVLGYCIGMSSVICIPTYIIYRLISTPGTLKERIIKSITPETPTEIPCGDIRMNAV
dopamine transporter (DAT), sequence (P23977 whole entry): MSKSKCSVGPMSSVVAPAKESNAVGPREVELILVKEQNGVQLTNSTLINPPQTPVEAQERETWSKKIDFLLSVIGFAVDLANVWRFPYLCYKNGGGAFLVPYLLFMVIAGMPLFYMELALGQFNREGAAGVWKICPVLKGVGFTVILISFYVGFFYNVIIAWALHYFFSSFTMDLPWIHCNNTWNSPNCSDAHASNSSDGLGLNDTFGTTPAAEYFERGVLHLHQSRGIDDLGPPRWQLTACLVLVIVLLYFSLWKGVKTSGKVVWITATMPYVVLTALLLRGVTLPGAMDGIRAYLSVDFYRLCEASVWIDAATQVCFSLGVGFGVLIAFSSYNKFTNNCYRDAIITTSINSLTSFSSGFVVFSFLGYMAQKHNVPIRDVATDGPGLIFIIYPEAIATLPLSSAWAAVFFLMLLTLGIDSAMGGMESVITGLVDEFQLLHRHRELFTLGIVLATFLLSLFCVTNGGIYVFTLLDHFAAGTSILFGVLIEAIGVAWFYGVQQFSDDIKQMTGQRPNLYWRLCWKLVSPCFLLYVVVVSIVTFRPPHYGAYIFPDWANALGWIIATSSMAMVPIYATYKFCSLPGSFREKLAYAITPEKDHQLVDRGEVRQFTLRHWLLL
T1 sequence (P23977 whole entry): as above

| SMILES | NET Uptake Emax ([1]; mean ± S.D., n = 3) [%] | IC50 [1, 4] [nM] | Emax (DAT) [%] | IC50 [2, 5] [nM] | IC50 [3, 6] [nM] | NE Uptake Emax (% I ± SD) [1, 7] [% I] | IC50 [1, 8] [nM] | Emax ([2]; read-out: DAT Uptake Emax) [%] | Emax [3, 9] [%] | IC50 [2, 10] [nM] | Emax [2, 11] [%] | IC50 ([3]; rat brain synaptosomes, 5 nM [^3H]serotonin, 30 min, 25° C., read-out: 5HT Uptake EC50 (nM ± SD)) [nM] | Emax ([3]; rat brain synaptosomes, 5 nM [^3H]serotonin, maximal inhibition from dose-response fit, read-out: 5HT Uptake Emax (% I ± SD)) [%] | Emax ([3]; read-out: SERT Uptake Emax) [%] | melting point [°C] |
| --- | --- | --- | --- | --- | --- | --- | --- | --- | --- | --- | --- | --- | --- | --- | --- |
| Cc1cc(NS(C)(=O)=O)ccc1-c1nc(NCC(c2ccccc2)c2ccncc2)c2ccccc2n1 (stereo not drawn) [SRI-31039] | 71 ± 3 | 31 ± 7 | 72 ± 7 | 7.4 ± 2 | 8 ± 2.8 |  |  |  |  |  |  |  |  |  |  |
| CNc1ncc(-c2nc(NCC(c3ccccc3)c3ccccc3)c3ccccc3n2)cn1 [compound 41, N-(2,2-Diphenylethyl)-2-(2-(Methylamino)Pyrimidin-5-yl)Quinazolin-4-Amine] | 78 ± 2 | 179 ± 27 | 59 ± 6 | 11 ± 1 | 57 ± 18 | 78 ± 2 | 179 ± 27 | 71 ± 1 | 60 ± 3 |  |  |  |  |  |  |
| c1ccc(C(CNc2nc(-c3ccc4nccn4c3)nc3ccccc23)c2cccnc2)cc1 (stereo not drawn) [compound 131, 2-(Imidazo[1,2-A]Pyridin-6-yl)-N-(2-Phenyl-2-(Pyridin-3-yl)Ethyl)Quinazolin-4-Amine] | 75 ± 3 | 78 ± 17 | 44 ± 3 | 21 ± 3 | 35 ± 11 | 75 ± 3 | 78 ± 17 | 70 ± 2 | 59 ± 3 |  |  |  |  |  |  |
| CS(=O)(=O)Nc1ccc(-c2nc(NCC(O)(c3ccccc3)c3ccccc3)c3ccccc3n2)cc1 [SRI-30504] | 70 ± 2 | 426 ± 49 | 47 ± 7 | 11 ± 2 | 50 ± 14 |  |  |  |  |  |  |  |  |  |  |
| OC(CNc1nc(-c2cnc3nccn3c2)nc2ccccc12)(c1ccccc1)c1ccccc1 [compound 99, 2-((2-(Imidazo[1,2-A]Pyrimidin-6-yl)Quinazolin-4-yl)Amino)-1,1-Diphenylethanol] | 76 ± 9 | 69 ± 18 | 34 ± 3 | 9.3 ± 1.1 | 3.9 ± 0.4 | 76 ± 3 | 69 ± 18 | 65 ± 1 | 56 ± 1 |  |  |  |  |  |  |
| CS(=O)(=O)Nc1ccc(-c2nc(NCC(c3ccccc3)c3ccncc3)c3ccccc3n2)cc1 (stereo not drawn) [SRI-30524] | 76 ± 2 | 44 ± 6 |  |  | 8.7 ± 0.9 |  |  |  |  |  |  |  |  |  |  |
| CN(C)c1ncc(-c2nc(NCC(O)(c3ccccc3)c3ccccc3)c3ccccc3n2)cn1 [compound 80, 2-((2-(2-(Dimethylamino)Pyrimidin-5-yl)Quinazolin-4-yl)Amino)-1,1-Diphenylethanol] | 71 ± 2 | 259 ± 41 | 47 ± 6 | 13 ± 2 | 54 ± 7 | 71 ± 2 | 259 ± 41 | 73 ± 2 | 51 ± 1 |  |  |  |  |  |  |
| Cc1cc(NS(C)(=O)=O)ccc1-c1nc(NCC(c2ccccc2)c2ccccc2)c2ccccc2n1 [SRI-30828] | 65 ± 3 | 144 ± 30 | 60 ± 7 | 8.9 ± 1.6 | 20 ± 5 |  |  |  |  |  |  |  |  |  |  |
| OC(CNc1nc(-c2ccc3nccn3c2)nc2ccccc12)(c1ccccc1)c1ccccc1 [compound 96, 2-((2-(Imidazo[1,2-A]Pyridin-6-yl)Quinazolin-4-yl)Amino)-1,1-Diphenylethanol] |  |  |  |  |  | 65 ± 3 | 98 ± 23 |  |  | 9.2 ± 1.2 | 70 ± 1 | 16 ± 5 | 55 ± 2 |  |  |
| c1ccc(C(CNc2nc(-c3ccc4nccn4c3)nc3ccccc23)C2CCCCC2)cc1 (stereo not drawn) [compound 100, N-(2-Cyclohexyl-2-Phenylethyl)-2-(Imidazo[1,2-A]Pyridin-6-yl)Quinazolin-4-Amine] | 65 ± 4 | 153 ± 55 | 50 ± 4 | 12 ± 2 | 83 ± 28 | 65 ± 4 | 153 ± 55 | 72 ± 2 | 59 ± 4 |  |  |  |  |  |  |
| Cn1cc2cc(-c3nc(NCC(c4ccccc4)c4ccccc4)c4ccccc4n3)ccc2n1 [compound 66, N-(2,2-Diphenylethyl)-2-(2-Methyl-2H-Indazol-5-yl)Quinazolin-4-Amine] | 71 ± 3 | 229 ± 43 | 58 ± 3 | 19 ± 4 | 106 ± 19 | 71 ± 3 | 229 ± 43 | 69 ± 2 | 61 ± 2 |  |  |  |  |  |  |
| CSc1ncc(-c2nc(NCC(c3ccccc3)c3ccccc3)c3ccccc3n2)cn1 [compound 30, N-(2,2-Diphenylethyl)-2-(2-(Methylthio)Pyrimidin-5-yl)Quinazolin-4-Amine] | 62 ± 3 | 204 ± 47 | 63 ± 4 | 9 ± 1.5 | 56 ± 21 | 62 ± 3 | 204 ± 47 | 71 ± 2 | 52 ± 3 |  |  |  |  |  |  |
| COC(=O)[C@H]1[C@@H](OC(=O)c2ccccc2)C[C@@H]2CC[C@H]1N2C [cocaine, reference compound] | 102 ± 2 |  |  |  |  |  |  | 100 ± 2 |  |  |  |  |  | 98 ± 2 |  |
| c1cncc(C(CNc2nc(-c3ccc4nccn4c3)nc3ccccc23)c2ccc[nH]2)c1 (stereo not drawn) [compound 155, 2-(Imidazo[1,2-A]Pyridin-6-yl)-N-(2-(pyridin-3-yl)-2-(1H-Pyrrol-2-yl)Ethyl)Quinazolin-4-Amine] |  |  |  |  |  |  |  |  |  | 175 ± 65 | 77 ± 6 |  |  |  | 121 to 124 |
| COc1cc2nc(-c3ccc4[nH]ccc4c3)nc(NCC(c3ccccc3)c3ccccc3)c2cc1OC [compound 24, N-(2,2-Diphenylethyl)-2-(1H-indol-5-yl)-6,7-Dimethoxyquinazolin-4-Amine] |  |  |  |  |  |  |  |  |  | 46 | 100 |  |  |  | 117 |
| c1ccc(C(CNc2nc(-c3ccc4[nH]ccc4c3)nc3ccccc23)c2cccc(-c3ccc4[nH]ccc4c3)n2)cc1 (stereo not drawn) [compound 58, N-(2-(6-(1H-Indol-5-yl)Pyridin-2-yl)-2-Phenylethyl)-2-(1H-Indol-5-yl)Quinazolin-4-Amine] |  |  |  |  |  |  |  |  |  | 478 ± 154 | 65 ± 5 |  |  |  | 151 |
| Cc1cc2nccn2cc1-c1nc(NC(CCc2ccccc2)c2ccccc2)c2ccccc2n1 (stereo not drawn) [compound 167, N-(1,3-Diphenylpropyl)-2-(7-Methylimidazo[1,2-A]Pyridin-6-yl)Quinazolin-4-Amine] |  |  |  |  |  |  |  |  |  | 9.4 ± 2.3 | 76 ± 3 |  |  |  | 119 to 120 |
| c1ccc(C(CCNc2nc(-c3cccs3)nc3ccccc23)c2ccccc2)cc1 [compound 7, N-(3,3-Diphenylpropyl)-2-(thiophen-2-yl)quinazolin-4-amine] |  |  |  |  |  |  |  |  |  | 910 | 100 |  |  |  | 152 to 155 |
